Results from ChEMBL document CHEMBL1201862, “PubChem BioAssay data set” (2004).
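Five concentrations, 48 hours, 96-well plates. At the GI50, growth is halved.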 Activity calls are given as the source filed them. No stated cut-off is given here; in the data, active = GI50 up to about 1.1 µM and inactive = higher.

How the values were obtained:
Test in all cases: NCI anticancer screen, dose series, 48 h
CCRF-CEM = test system: CCRF-CEM
SW-620 = test system: SW-620
HCT-15 = test system: HCT-15
OVCAR-4 = test system: OVCAR-4
RPMI-8226 = test system: RPMI-8226
OVCAR-3 = test system: OVCAR-3
IGROV-1 = test system: IGROV-1
EKVX = test system: EKVX
NCI-H226 = test system: NCI-H226
UACC-62 = test system: UACC-62
MCF7 = test system: MCF7
K562 = test system: K562
MDA-MB-435 = test system: MDA-MB-435
A549 = test system: A549
786-0 = test system: 786-0
SK-MEL-28 = test system: SK-MEL-28
RXF 393 = test system: RXF 393
PC-3 = test system: PC-3
MDA-MB-231 = test system: MDA-MB-231
SF-295 = test system: SF-295
TK-10 = test system: TK-10
NCI/ADR-RES = test system: NCI/ADR-RES
MDA-N = test system: MDA-N
COLO 205 = test system: COLO 205
NCI-H460 = test system: NCI-H460
KM12 = test system: KM12
OVCAR-5 = test system: OVCAR-5
HOP-92 = test system: HOP-92
MOLT-4 = test system: MOLT-4
BT-549 = test system: BT-549
T47D = test system: T47D
SK-OV-3 = test system: SK-OV-3
LOX IMVI = test system: LOX IMVI
Hs-578T = test system: Hs-578T
SK-MEL-2 = test system: SK-MEL-2
SNB-19 = test system: SNB-19
U-251 = test system: U-251
OVCAR-8 = test system: OVCAR-8
UO-31 = test system: UO-31
M14 = test system: M14
NCI-H23 = test system: NCI-H23
UACC-257 = test system: UACC-257
SR = test system: SR
SF-268 = test system: SF-268
SF-539 = test system: SF-539
HCT-116 = test system: HCT-116
SN12C = test system: SN12C
NCI-H522 = test system: NCI-H522
HL-60 = test system: HL-60
Malme-3M = test system: Malme-3M
HT-29 = test system: HT-29
HOP-62 = test system: HOP-62
DU-145 = test system: DU-145
ACHN = test system: ACHN
A498 = test system: A498
HCC 2998 = test system: HCC 2998
SK-MEL-5 = test system: SK-MEL-5
CAKI-1 = test system: CAKI-1
SNB-75 = test system: SNB-75

COC(=O)C1=C(C)NC(C)=C([N+](=O)[O-])C1c1cccc(N=O)c1 (stereo not given)
GI50 (CCRF-CEM): 4.83 µM (inactive)
GI50 (SW-620): 3.58 µM (inactive)
GI50 (HCT-15): 14.2 µM
GI50 (OVCAR-4): 11.9 µM (inactive)
GI50 (RPMI-8226): 4.29 µM (inactive)
GI50 (OVCAR-3): 15 µM (inactive)
GI50 (IGROV-1): 16 µM (inactive)
GI50 (EKVX): 21.1 µM (inactive)
GI50 (NCI-H226): 22 µM (inactive)
GI50 (UACC-62): 15.5 µM (inactive)
GI50 (MCF7): 17.4 µM (inactive)
GI50 (K562): 4.47 µM (inactive)
GI50 (MDA-MB-435): 12.7 µM (inactive)
GI50 (A549): 18.9 µM (inactive)
GI50 (786-0): 14.2 µM (inactive)
GI50 (SK-MEL-28): 17.9 µM (inactive)
GI50 (RXF 393): 13.8 µM (inactive)
GI50 (PC-3): 17.9 µM (inactive)
GI50 (MDA-MB-231): 18.3 µM (inactive)
GI50 (SF-295): 21.7 µM (inactive)
GI50 (TK-10): 12.8 µM (inactive)
GI50 (NCI/ADR-RES): 21 µM (inactive)
GI50 (MDA-N): 10 µM (inactive)
GI50 (COLO 205): 15.7 µM (inactive)
GI50 (NCI-H460): 16.5 µM (inactive)
GI50 (KM12): 13.6 µM (inactive)
GI50 (OVCAR-5): 16.9 µM (inactive)
GI50 (HOP-92): 2.83 µM (inactive)
GI50 (MOLT-4): 3.18 µM (inactive)
GI50 (BT-549): 16.7 µM (inactive)
GI50 (T47D): 12.1 µM (inactive)
GI50 (SK-OV-3): 21.9 µM (inactive)
GI50 (LOX IMVI): 16.1 µM (inactive)
GI50 (Hs-578T): 15.2 µM (inactive)
GI50 (SK-MEL-2): 18.2 µM (inactive)
GI50 (SNB-19): 29.7 µM (inactive)
GI50 (U-251): 18 µM (inactive)
GI50 (OVCAR-8): 16.3 µM (inactive)
GI50 (UO-31): 12.1 µM (inactive)
GI50 (M14): 13.1 µM (inactive)
GI50 (NCI-H23): 18.5 µM (inactive)
GI50 (UACC-257): 12.5 µM (inactive)
GI50 (SR): 3.36 µM (inactive)
GI50 (SF-268): 17.5 µM (inactive)
GI50 (SF-539): 16.8 µM (inactive)
GI50 (HCT-116): 10.8 µM (inactive)
GI50 (SN12C): 19.7 µM (inactive)
GI50 (NCI-H522): 1.66 µM (inactive)
GI50 (HL-60): > 100 µM (inactive)
GI50 (Malme-3M): 12.5 µM (inactive)
GI50 (HT-29): 16.8 µM (inactive)
GI50 (HOP-62): 19.2 µM (inactive)
GI50 (DU-145): 15.2 µM (inactive)
GI50 (ACHN): 12.3 µM (inactive)
GI50 (A498): 24.4 µM (inactive)
GI50 (HCC 2998): 18.9 µM (inactive)
GI50 (SK-MEL-5): 15.6 µM (inactive)
GI50 (CAKI-1): 7.96 µM (inactive)

Cc1cc(S(=O)(=O)n2ccnc2Oc2cccc(Cl)c2)c(SSc2cc(Cl)c(C)cc2S(=O)(=O)n2ccnc2Oc2cccc(Cl)c2)cc1Cl
GI50 (CCRF-CEM): 2.81 µM (inactive)
GI50 (SW-620): 11.7 µM (inactive)
GI50 (HCT-15): 8.67 µM
GI50 (OVCAR-4): 9.57 µM (inactive)
GI50 (RPMI-8226): 2.67 µM (inactive)
GI50 (OVCAR-3): 8.02 µM (inactive)
GI50 (IGROV-1): 8.13 µM (inactive)
GI50 (EKVX): 4 µM (inactive)
GI50 (NCI-H226): 6.37 µM (inactive)
GI50 (UACC-62): 5.7 µM (inactive)
GI50 (MCF7): 3.21 µM (inactive)
GI50 (K562): 9.93 µM (inactive)
GI50 (MDA-MB-435): 5.65 µM (inactive)
GI50 (A549): 7.06 µM (inactive)
GI50 (786-0): 6.79 µM (inactive)
GI50 (SK-MEL-28): 14.1 µM (inactive)
GI50 (RXF 393): 3.08 µM (inactive)
GI50 (PC-3): 6.11 µM (inactive)
GI50 (MDA-MB-231): 12.4 µM (inactive)
GI50 (SF-295): 4.19 µM (inactive)
GI50 (TK-10): 29 µM (inactive)
GI50 (NCI/ADR-RES): 3.1 µM (inactive)
GI50 (MDA-N): 8.38 µM (inactive)
GI50 (COLO 205): 2.57 µM (inactive)
GI50 (NCI-H460): 7.8 µM (inactive)
GI50 (KM12): 5.66 µM (inactive)
GI50 (OVCAR-5): 10.4 µM (inactive)
GI50 (HOP-92): 4.39 µM (inactive)
GI50 (MOLT-4): 4.14 µM (inactive)
GI50 (BT-549): 4.3 µM (inactive)
GI50 (T47D): 2.98 µM (inactive)
GI50 (SK-OV-3): 12.4 µM (inactive)
GI50 (LOX IMVI): 30 µM (inactive)
GI50 (Hs-578T): 4.19 µM (inactive)
GI50 (SK-MEL-2): 7.66 µM (inactive)
GI50 (U-251): 3.18 µM (inactive)
GI50 (SNB-75): 7.59 µM (inactive)
GI50 (OVCAR-8): 6.59 µM (inactive)
GI50 (UO-31): 5.96 µM (inactive)
GI50 (M14): 7.89 µM (inactive)
GI50 (NCI-H23): 6.32 µM (inactive)
GI50 (UACC-257): 8.09 µM (inactive)
GI50 (SR): 9.06 µM (inactive)
GI50 (SF-268): 7.43 µM (inactive)
GI50 (SF-539): 4.54 µM (inactive)
GI50 (HCT-116): 6.19 µM (inactive)
GI50 (SN12C): 8.87 µM (inactive)
GI50 (HL-60): 4.18 µM (inactive)
GI50 (Malme-3M): 5.74 µM (inactive)
GI50 (HT-29): 7.83 µM (inactive)
GI50 (HOP-62): 9.57 µM (inactive)
GI50 (DU-145): 5.32 µM (inactive)
GI50 (ACHN): 8.36 µM (inactive)
GI50 (A498): 12.2 µM (inactive)
GI50 (HCC 2998): 20.7 µM (inactive)
GI50 (SK-MEL-5): 3.42 µM (inactive)
GI50 (CAKI-1): 10.9 µM (inactive)
